Laboratory results from patent US8247429B2, “Tricyclic compound and pharmaceutical use thereof” (Takeda Pharmaceutical Company Limited, priority 2006, dated 2012).

How the values were obtained:
[1] = biological target: T1, human melatonin 1 receptors (human MT1 receptors) (Homo sapiens, UniProt P48039); assay: Melatonin receptor binding inhibitory test (2-[125I] Iodomelatonin), MT1; conditions: membrane fraction of CHO-hMelR7 cells, 25° C. for 2.5 hr
T1 construct: expressed in transfected cells; membrane fraction used
T1 sequence (P48039 whole entry): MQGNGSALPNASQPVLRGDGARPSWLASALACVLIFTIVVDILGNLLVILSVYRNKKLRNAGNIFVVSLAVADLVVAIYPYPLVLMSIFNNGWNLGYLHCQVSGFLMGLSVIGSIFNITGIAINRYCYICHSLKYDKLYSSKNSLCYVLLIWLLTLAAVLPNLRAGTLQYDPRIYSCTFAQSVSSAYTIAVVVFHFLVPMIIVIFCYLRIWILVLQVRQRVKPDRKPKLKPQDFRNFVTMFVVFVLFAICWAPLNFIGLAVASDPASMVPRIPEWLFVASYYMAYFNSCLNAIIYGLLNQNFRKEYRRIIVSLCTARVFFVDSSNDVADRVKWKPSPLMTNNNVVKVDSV
Procedure: (§1) Melatonin receptor binding inhibitory test
(1) Preparation of CHO-hMelR7 Cells Expressing Human Melatonin 1 Receptors
A cDNA fragment (SEQ ID NO: 1) encoding full-length of human melatonin 1 receptors (human MT1 receptors) was incorporated into expression vector pAKKO-111H (former name pAKKO1.11H; Biochim Biophys Acta. Vol. 1219(2), pp. 251-259, 1994) to give plasmid pAKKO-hMelR7 for animal cell expression. CHO/dhfr-cells (ATCC, #CRL-9096) were plated at a concentration of 0.3×10^6 cells/dish in a 6 cm culture dish (Becton Dickinson), and cultured under the conditions of 37° C., 5% CO2 for 48 hr. The cells were transfected with pAKKO-hMelR7 plasmid DNA (5 μg) using Cellphect Transfection Kit (Amersham, #27-9268-01). The transfected cells were cultured in Dulbecco's modified Eagle medium (DMEM) (Sigma, #D6046) containing 10% dialyzed FBS (Biowest, #S180D), 1× Non-Essential Amino Acid (Invitrogen, #11140-050) and 50 μg/mL Gentamycin (Invitrogen, #15750-060), and the cell line that stably expressed the plasmid gene was selected. By a receptor binding assay using 2-[^125I] Iodomelatonin, CHO-hMelR7 cell line showing specific binding of 2-[^125I] Iodomelatonin was selected from the obtained clones.
(§2) (3) Preparation of Cellular Membrane Fraction of CHO Cell (CHO-hMelR7 and CHO-hMT2) Stably Expressing Human MT1 and MT2 Receptors
(§3) CHO-hMelR7 and CHO-hMT2 cells were plated using Cellfactory (Nunc, #170009) under the conditions of 1×10^8 cells/2000 mL/flask. The cells were grown to confluent, and recovered by the following method. As the medium for CHO-hMelR7 and CHO-hMT2, MEM α containing 10% FBS and penicillin/streptomycin was used. […] of geneticin was added to the medium for CHO-hMT2.
(§4) The medium was discarded, cells were washed twice with 200 mL of EDTA/PBS(−), 200 mL of EDTA/PBS(−) was further added, and the cells were stood still at room temperature for 20 min until they were released. The cells were recovered in four 50 mL tubes (Becton Dickinson, #352070), and centrifuged at 1,500 rpm for 10 min at 4° C. using a low speed cooling centrifuge (Hitachi, CF7D2). The supernatant was discarded, the pellets in the four tubes were suspended in 10 mL of PBS(−), and combined in one tube (Becton Dickinson, #352070). The mixture was further centrifuged at 1,500 rpm for 10 min at 4° C., and the obtained pellets were suspended in 20 mL of ice-cooled homogenizing buffer [10 mM NaHCO3, 5 mM EDTA, Protease inhibitor Complete (Roche), pH 7.4]. The cell suspension was homogenized 3 times using a polytron homogenizer at 20,000 rpm for 30 sec. The obtained homogenate was centrifuged (2,000 rpm, 10 min, 4° C.) using a low speed cooling centrifuge. The supernatant was recovered in an ultracentrifugation tube and ultracentrifuged (40,000 rpm, 60 min, 4° C.) using an ultracentrifuge (Beckman, L-90K). To the obtained pellets was added a suspending buffer [50 mM Tris-HCl, 1 mM EDTA, Protease inhibitor Complete (Roche), pH 7.4], and the pellets were suspended by pipetting. The protein concentration of this suspension was measured, diluted to 2 mg/mL to give cellular membrane fractions of CHO-hMelR7 and CHO-hMT2 cells. The membrane fractions were dispensed to 1.5 mL tubes (Eppendorf, #0030120.086) by 100 μL, preserved in a freezer (−80° C.) and used for a binding assay. Protein was quantified using BCA protein assay kit (Pierce) with BSA as the standard.
(§5) (4) Preparation of Membrane Fraction Suspension
(§6) Immediately before use, the membrane fractions of CHO-hMelR7 and CHO-hMT2 cells of the above-mentioned (3) were diluted 20-fold with assay buffer (50 mM Tris-HCl, pH 7.7).
(§7) (5) Preparation of 2-[^125I] Iodomelatonin Solution
(§8) 2-[^125I] Iodomelatonin (#NEX236, PerkinElmer) was diluted with the assay buffer to 400 pM for MT1 and 1 nM for MT2.
(§9) The assay buffer (80 μL) of the above-mentioned (4) was added to each well of a 96-well plate (type 3363, Corning). […]

[2] = biological target: T2, human melatonin 2 receptors (human MT2 receptors) (Homo sapiens, UniProt P49286); assay: Melatonin receptor binding inhibitory test (2-[125I] Iodomelatonin), MT2; conditions: membrane fraction of CHO-hMT2 cells, 25° C. for 2.5 hr
T2 construct: expressed in transfected cells; membrane fraction used
T2 sequence (P49286 1-362): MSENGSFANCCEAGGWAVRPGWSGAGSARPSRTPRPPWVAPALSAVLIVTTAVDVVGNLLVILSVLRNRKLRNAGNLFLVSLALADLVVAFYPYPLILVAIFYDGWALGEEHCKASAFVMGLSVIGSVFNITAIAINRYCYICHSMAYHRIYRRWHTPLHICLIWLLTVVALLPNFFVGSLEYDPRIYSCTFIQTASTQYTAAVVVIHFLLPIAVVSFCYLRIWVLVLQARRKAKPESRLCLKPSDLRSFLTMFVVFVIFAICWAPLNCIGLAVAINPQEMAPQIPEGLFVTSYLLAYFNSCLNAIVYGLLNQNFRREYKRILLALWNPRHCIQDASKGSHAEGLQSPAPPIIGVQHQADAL
Procedure: as §1
(2) Preparation of CHO-hMT2 Cells Expressing Human Melatonin 2 Receptors
A cDNA fragment (SEQ ID NO: 2) encoding full-length of human melatonin 2 receptors (human MT2 receptors) was incorporated into expression vector pCMV-Script (Stratagene, #212220) to give the plasmid that was pCMV-human MT2 receptors expression vector for animal cell expression. CHO-K1 cells (ATCC, #CCL-61) were plated at the concentration of 1.5×10^5 cells/cm^2 in a 6 well plate (ASAHI TECHNO GLASS), and cultured under the conditions of 37° C., 5% CO2 for 24 hr. For gene transfection, solution obtained by blending pCMV-human MT2 receptors expression vector (1.9 μg), Lipofectamine Transfection Reagent (Invitrogen, #18324-012) (11.3 μL) and Minimum Essential Medium Eagle (MEM) medium (Sigma, M8042) (93.8 μL), and reacting at room temperature for 20 min was added to the cells per one well. The transfected cells were cultured in MEM medium containing 10% FBS (Life Technology) and 300 μg/mL Geneticin (GIBCO, #10131), and the cell line that stably expressed the plasmid gene was selected. By a receptor binding assay using 2-[^125I] Iodomelatonin, CHO-hMT2 cell line showing specific binding of 2-[^125I] Iodomelatonin was selected from the obtained clones.
as §2, §3, §4, §5, §6, §7, §8, §9

melting point [°C] | IC50 [1] [nM] | IC50 [2] [nM] | Structure (SMILES)
200 to 202 | ≤ 100 | ≤ 100 | CC(=O)NCC=C1CCc2ccc3nn(C)cc3c21 [Example 1, N-[2-(2-methyl-6,7-dihydrocyclopenta[e]indazol-8(2H)-ylidene)ethyl]acetamide]
– | ≤ 100 | ≤ 100 | CC(=O)NCCC1CCc2ccc3nn(C)cc3c21 (stereo not shown) [Example 2, N-[2-(2-methyl-2,6,7,8-tetrahydrocyclopenta[e]indazol-8-yl)ethyl]acetamide]
– | ≤ 100 | ≤ 100 | CC(=O)NCC[C@@H]1CCc2ccc3nn(C)cc3c21 [Example 3]
185 to 187 | ≤ 100 | ≤ 100 | CCC(=O)NCC=C1CCc2ccc3nn(C)cc3c21 [Example 5, N-[2-(2-methyl-6,7-dihydrocyclopenta[e]indazol-8(2H)-ylidene)ethyl]propanamide]
– | ≤ 100 | ≤ 100 | CCC(=O)NCCC1CCc2ccc3nn(C)cc3c21 (stereo not shown) [Example 6, N-[2-(2-methyl-2,6,7,8-tetrahydrocyclopenta[e]indazol-8-yl)ethyl]propanamide]
200 to 203 | ≤ 100 | ≤ 100 | CC(=O)NCC=C1CCc2ccc3nn(C)c(C)c3c21 [Example 7, N-[2-(1,2-dimethyl-6,7-dihydrocyclopenta[e]indazol-8(2H)-ylidene)ethyl]acetamide]
146 to 149 | ≤ 100 | ≤ 100 | CC(=O)NCCC1CCc2ccc3nn(C)c(C)c3c21 (stereo not shown) [Example 8, N-[2-(1,2-dimethyl-2,6,7,8-tetrahydrocyclopenta[e]indazol-8-yl)ethyl]acetamide]
121 to 122 | – | – | CC(=O)NCCC1CCc2ccn3ncc(C)c3c21 (stereo not shown) [Example 10, N-[2-(1-methyl-8,9-dihydro-7H-cyclopenta[c]pyrazolo[1,5-a]pyridin-9-yl)ethyl]acetamide]
100 to 101 | ≤ 100 | ≤ 100 | CC(=O)NCCC1CCc2ccn3nccc3c21 (stereo not shown) [Example 11, N-[2-(8,9-dihydro-7H-cyclopenta[c]pyrazolo[1,5-a]pyridin-9-yl)ethyl]acetamide]
72 to 73 | ≤ 100 | ≤ 100 | CCC(=O)NCCC1CCc2ccn3nccc3c21 (stereo not shown) [Example 12, N-[2-(8,9-dihydro-7H-cyclopenta[c]pyrazolo[1,5-a]pyridin-9-yl)ethyl]propanamide]
101 to 103 | – | – | CCOC(=O)c1c(C)nn2ccc3c(c12)C(CCNC(C)=O)CC3 (stereo not shown) [Example 13, ethyl 9-[2-(acetylamino)ethyl]-2-methyl-8,9-dihydro-7H-cyclopenta[c]pyrazolo[1,5-a]pyridine-1-carboxylate]
134 to 135 | ≤ 100 | ≤ 100 | CC(=O)NCCC1CCc2ccn3nc(C)c(C)c3c21 (stereo not shown) [Example 14, N-[2-(1,2-dimethyl-8,9-dihydro-7H-cyclopenta[c]pyrazolo[1,5-a]pyridin-9-yl)ethyl]acetamide]
– | ≤ 100 | ≤ 100 | CC(=O)NCCC1CCc2ccn3nc(C)cc3c21 (stereo not shown) [Example 18, N-[2-(2-methyl-8,9-dihydro-7H-cyclopenta[c]pyrazolo[1,5-a]pyridin-9-yl)ethyl]acetamide]
– | ≤ 100 | ≤ 100 | CC(=O)NCC[C@@H]1CCc2ccn3nc(C)cc3c21 [Example 19, N-{2-[(9S)-2-methyl-8,9-dihydro-7H-cyclopenta[c]pyrazolo[1,5-a]pyridin-9-yl]ethyl}acetamide]
– | ≤ 100 | ≤ 100 | CCc1cc2c3c(ccn2n1)CCC3CCNC(C)=O (stereo not shown) [Example 21, N-[2-(2-ethyl-8,9-dihydro-7H-cyclopenta[c]pyrazolo[1,5-a]pyridin-9-yl)ethyl]acetamide]
– | ≤ 100 | ≤ 100 | CC(=O)NCCC1CCc2ccc3nc(C)cn3c21 (stereo not shown) [Example 22, N-[2-(2-methyl-7,8-dihydro-6H-cyclopenta[e]imidazo[1,2-a]pyridin-8-yl)ethyl]acetamide]
155 to 156 | ≤ 100 | ≤ 100 | CC(=O)NCC[C@@H]1CCc2ccc3nn(C)c(F)c3c21 [Example 23, N-{2-[(8S)-1-fluoro-2-methyl-2,6,7,8-tetrahydrocyclopenta[e]indazol-8-yl]ethyl}acetamide]
168 to 171 | ≤ 100 | ≤ 100 | CC(=O)NCC[C@@H]1CCc2ccc3nn(C)c(Cl)c3c21 [Example 24, N-{2-[(8S)-1-chloro-2-methyl-2,6,7,8-tetrahydrocyclopenta[e]indazol-8-yl]ethyl}acetamide]
– | ≤ 100 | ≤ 100 | CC(=O)NCC[C@@H]1CCc2ccc3nn(C)c(Br)c3c21 [Example 25, N-{2-[(8S)-1-bromo-2-methyl-2,6,7,8-tetrahydrocyclopenta[e]indazol-8-yl]ethyl}acetamide]
– | ≤ 100 | ≤ 100 | CCC(=O)NCCC1CCc2ccn3nc(C)cc3c21 (stereo not shown) [Example 32, N-[2-(2-methyl-8,9-dihydro-7H-cyclopenta[c]pyrazolo[1,5-a]pyridin-9-yl)ethyl]propanamide]
159 to 160 | – | ≤ 100 | CC(=O)NCCC1CCc2ccn3nc(-c4ccccc4)cc3c21 (stereo not shown) [Example 34, N-[2-(2-phenyl-8,9-dihydro-7H-cyclopenta[c]pyrazolo[1,5-a]pyridin-9-yl)ethyl]acetamide]
